Patent US8541377B2, “Optimized dengue virus entry inhibitory peptide (DN81)” (Florida Gulf Coast University, priority 2007, dated 2013)
Residues, ends and D or L forms follow the SMILES beside them.

System: LLCMK-2 cells
Details: confluent LLCMK-2 monolayers; concentration ranges that showed viral inhibition; vs medium only controls, p>0.05; FIG. 4
Experimental: The cytotoxicity of the chemistries was measured by monitoring mitochondrial reductase activity using the TACS™ MTT cell proliferation assay (R&D Systems, Inc., Minneapolis, Minn.) according to the manufacturer's instructions. Dilutions of chemistries in serum-free DMEM were added to confluent monolayers of LLCMK-2 cells in 96-well plates for 1 h at 37° C., similar to the focus forming inhibition assays, and subsequently incubated at 37° C. with 5% (v/v) CO2 for 24 h. Absorbance at 560 nm was measured using a Tecan GeniosPro plate reader (Tecan US, Durham, N.C.).

Structure (SMILES): CSCC[C@H](NC(=O)[C@H](Cc1c[nH]c2ccccc12)NC(=O)[C@@H](N)CCCNC(=N)N)C(=O)N[C@H](C(=O)N[C@@H](Cc1c[nH]c2ccccc12)C(=O)N[C@@H](CCCNC(=N)N)C(=O)N[C@@H](Cc1c[nH]cn1)C(=O)N[C@@H](Cc1c[nH]c2ccccc12)C(=O)N[C@@H](Cc1ccccc1)C(=O)N[C@@H](Cc1c[nH]cn1)C(=O)N[C@@H](CCCNC(=N)N)C(=O)N[C@@H](CC(C)C)C(=O)N[C@@H](CCCNC(=N)N)C(=O)N[C@@H](CC(C)C)C(=O)N1CCC[C@H]1C(=O)N[C@@H](Cc1ccc(O)cc1)C(=O)N[C@@H](CC(N)=O)C(=O)N1CCC[C@H]1C(=O)NCC(=O)N[C@@H](CCCCN)C(=O)N[C@@H](CC(N)=O)C(=O)N[C@@H](CCCCN)C(=O)N[C@@H](CCC(N)=O)C(=O)N[C@@H](CC(N)=O)C(=O)N[C@@H](CCC(N)=O)C(=O)N[C@@H](CCC(N)=O)C(=O)N[C@@H](Cc1c[nH]c2ccccc12)C(=O)N1CCC[C@H]1C(=O)O)C(C)C [DN81] (H-RWMVWRHWFHRLRLPYNPGKNKQNQQWP-OH)
- toxicity (mitochondrial reductase activity of target cells): not due to toxicity
